Patent publication US20190255073A1, “ESTERS OF 3-POLYAMINE DERIVATIVES OF BILE ACIDS FOR THE TREATMENT OF INFECTIONS” (VIRBAC, priority 2016, published 2019)
In brackets after ≈: the same amount, converted by molar mass. Where two headings read alike, the source gives them in different places.

Experiments:
[1] = test system: P. aeruginosa (1051575); experiment: MIC determination by microplate dilution, P. aeruginosa animal strain; type: cell-based, Pseudomonas aeruginosa; settings: Pseudomonas aeruginosa, Gram-negative, Mueller-Hinton medium, 24 h, 37° C.
Procedure: (§1) 1) Preparation of the Preculture
(§2) A negative control (2 mL of sterile culture medium)
(§3) A positive control (1940 μL of culture medium+40 μL of DMSO+20 μL of bacterial suspension) from a thawed biological strain (the biological strains are stored at −80° C. in glycerol).
(§4) The tubes were incubated at 37° C. for 24 hours at 100 rpm.
(§5) The microorganisms were handled under a type L2 laboratory fume cupboard and, before any handling, a UV cycle was programmed and only sterile material was used. […] The chemical compounds to be tested were prepared in a DMSO/methanol mixture (50/50) at a concentration of 5 mg/mL.
(§6) 2) Preparation of the Microplate for the Determination of the Minimum Inhibitory Concentration (MIC)
(§7) After 24 hours of incubation, a measurement of the optical density was taken using a spectrophotometer at 600 nm, collecting 100 μL of the bacterial suspension diluted in 900 μL of the sterile culture medium. This test required the use of a 96-well plate and the required volume of the microbial suspension to be seeded was calculated for an OD corresponding to a value equal to 0.01 in each well. In this plate, the first line corresponded to the negative control (195 μL of sterile culture medium in each well), the second line to the positive control (seeded culture medium supplemented with 2% of DMSO), the third line was loaded twice with bacterial suspension, 8 μL of test product were placed in each well. Thereafter, a 0.5 cascade dilution was performed from this line.
(§8) The first column served as inhibition control. A sterile filter was then placed on the microplate, allowing the passage of gases but not of contaminants. The microplate was incubated at 37° C. under a humid atmosphere for 24 hours.
(§9) NB: The medium used is Mueller-Hinton (MH) medium for bacteria. All the tests were performed in duplicate.
(§10) 4) Reading of the Results
(§11) After incubation, the filter was replaced with a transparent film, and an OD reading was then taken in an iEMS plate spectrophotometer at 620 nm. Calculation of the minimum inhibitory concentration (MIC) was performed.

[2] = test system: P. aeruginosa ATCC27853; experiment: MIC determination by microplate dilution, P. aeruginosa human strain; type: cell-based, Pseudomonas aeruginosa; settings: Pseudomonas aeruginosa, ATCC27853, Gram-negative, Mueller-Hinton medium, 24 h, 37° C.
Procedure: as §1, §2, §3, §4, §5, §6, §7, §8, §9, §10, §11

[3] = test system: C. albicans; experiment: Antifungal activity, cascade microdilution, C. albicans; type: cell-based, Candida albicans; settings: Candida albicans; compounds as hydrochloride in water; MH medium; 24 h; read-out: IC50 (μg/mL) C. albicans
[4] = test system: E. faecalis ATCC29212; experiment: MIC determination by microplate dilution, E. faecalis human strain; type: cell-based, Enterococcus faecalis; settings: Enterococcus faecalis, ATCC29212, Gram-positive, Mueller-Hinton medium, 24 h, 37° C.
Procedure: as §1, §2, §3, §4, §5, §6, §7, §8, §9, §10, §11

[5] = test system: S. intermedius (1051997); experiment: MIC determination by microplate dilution, S. intermedius animal strain; type: cell-based, Staphylococcus intermedius; settings: Staphylococcus intermedius, Gram-positive, Mueller-Hinton medium, 24 h, 37° C.
Procedure: as §1, §2, §3, §4, §5, §6, §7, §8, §9, §10, §11

[6] = test system: S. aureus (340); experiment: MIC determination by microplate dilution, S. aureus animal strain; type: cell-based, Staphylococcus aureus; settings: Staphylococcus aureus, Gram-positive, Mueller-Hinton medium, 24 h, 37° C.
Procedure: as §1, §2, §3, §4, §5, §6, §7, §8, §9, §10, §11

[7] = test system: E. coli ATCC28922; experiment: MIC determination by microplate dilution, E. coli human strain; type: cell-based, Escherichia coli; settings: Escherichia coli, ATCC28922, Gram-negative, Mueller-Hinton medium, 24 h, 37° C.
Procedure: as §1, §2, §3, §4, §5, §6, §7, §8, §9, §10, §11

[8] = test system: E. coli (1956); experiment: MIC determination by microplate dilution, E. coli animal strain; type: cell-based, Escherichia coli; settings: Escherichia coli, Gram-negative, Mueller-Hinton medium, 24 h, 37° C.
Procedure: as §1, §2, §3, §4, §5, §6, §7, §8, §9, §10, §11

[9] = test system: S. aureus ATCC25923; experiment: MIC determination by microplate dilution, S. aureus human strain; type: cell-based, Staphylococcus aureus; settings: Staphylococcus aureus, ATCC25923, Gram-positive, Mueller-Hinton medium, 24 h, 37° C.
Procedure: as §1, §2, §3, §4, §5, §6, §7, §8, §9, §10, §11

[10] = test system: CHO-K1 cells; experiment: WST1 cytotoxicity test on CHO-K1 cells; type: cell-based, Chinese hamster; settings: Cricetulus griseus, read-out: IC50 (μg/mL) CHO
Procedure: Test WST1 was used to measure the cytotoxic activity of the products. This is a colorimetric test which makes it possible to measure the viability and the degree of cell proliferation. It is based on cleavage of the colorless tetrazolium salts WST-1 (4-[3-(4-iodophenyl)-2-(4-nitrophenyl)-2H-5-tetrazolio]-1,3-benzene disulfonate) with mitochondrial dehydrogenases to the yellow-colored formazan derivative, which may be quantified by spectrophotometry at 420-480 nm.
The WST1 test was performed on Chinese hamster ovary cells. The CHO-K1 cells (ATCC, USA) are kept in culture on McCoy's 5A medium supplemented with 10% fetal calf serum, 2 mM of L-glutamine and a mixture of penicillin-streptomycin (100 U/ml: 10 μg/mL). The culture is incubated at 37° C. under an atmosphere enriched in CO2 (5%), and subcultured every two days.
The cells are transferred into 96-well plates (25 000 cells/mL) in whole McCoy's 5A medium, and maintained for 24 hours at 37° C. under a humid atmosphere enriched in CO2 (5%). Increasing concentrations of test products are added to the wells in double tests and 8 growth controls containing the cells in the medium alone are included in each series of tests. After 24 hours at 37° C. (5% CO2), the culture medium is removed, the cells are rinsed in phosphate buffer (PBS) and 50 μL of PBS containing 10% of reagent WST1 are added to each well. After 20 minutes of incubation at 37° C., the results are read by spectrophotometry at 450 nm.
The results are expressed in dose-response relationships, modeled by nonlinear regression analysis using the TableCurve software. The 50% inhibitory concentration (IC50) represents the concentration of product that is capable of reducing the cell viability by 50%.

[11] = test system: P. aeruginosa (1051575); experiment: Potentiation of the doxycycline activity at 2 μg/mL; type: cell-based, Pseudomonas aeruginosa; settings: in combination with doxycycline 2 μg/mL; 24 h, 37°

SMILES | MIC [1] | MIC [2] | IC50 [3] | MIC [4] | MIC [5] | MIC [6] | MIC [7] | MIC [8] | MIC [9] | IC50 ([10]; CHO-K1, CHO (Example 7)) | MIC - P. aeruginosa (1051575): content of compound of formula (I) to restore the doxycycline activity (at 2 μg/mL) [11] | IC50 ([10]; CHO-K1, 24 h)
CC(C)OC(=O)CC[C@@H](C)[C@H]1CCC2C3C(C[C@H](O)[C@@]21C)[C@@]1(C)CC[C@H](NCCNCCNCCNCCNCCN)CC1C[C@H]3O (stereo partly drawn) [(21), isopropyl 3β-(pentaethylenehexamine)cholate] | 66 µg/mL (≈ 99.2 µM) | 66 µg/mL (≈ 99.2 µM) | 66 µg/mL (≈ 99.2 µM) | 33 µg/mL (≈ 49.6 µM) | 16 µg/mL (≈ 24.1 µM) | 33 µg/mL (≈ 49.6 µM) | 33 µg/mL (≈ 49.6 µM) | 66 µg/mL (≈ 99.2 µM) | 33 µg/mL (≈ 49.6 µM) | 105 µg/mL (≈ 158 µM) | – | –
CC(C)OC(=O)CC[C@@H](C)[C@H]1CCC2C3C(CC[C@@]21C)[C@@]1(C)CC[C@H](NCCCNCCCNCCCN)CC1C[C@@H]3O (stereo partly drawn) [(51), isopropyl 3β-norsperminoursodeoxycholate] | 30 µg/mL (≈ 49.6 µM) | 30 µg/mL (≈ 49.6 µM) | – | 62 µg/mL (≈ 102 µM) | 4 µg/mL (≈ 6.61 µM) | 15 µg/mL (≈ 24.8 µM) | 30 µg/mL (≈ 49.6 µM) | 62 µg/mL (≈ 102 µM) | 15 µg/mL (≈ 24.8 µM) | – | 2 µg/mL | 30 µg/mL (≈ 49.6 µM)
CC(C)OC(=O)CC[C@@H](C)[C@H]1CCC2C3CCC4C[C@@H](NCCCNCCCNCCCN)CC[C@]4(C)C3C[C@H](O)[C@@]21C (stereo partly drawn) [Compound (1), isopropyl 3β-norsperminodeoxycholate] | 2 µg/mL (≈ 3.31 µM) | 8 µg/mL (≈ 13.2 µM) | – | 8 µg/mL (≈ 13.2 µM) | 2 µg/mL (≈ 3.31 µM) | 2 µg/mL (≈ 3.31 µM) | 8 µg/mL (≈ 13.2 µM) | 10 µg/mL (≈ 16.5 µM) | 4 µg/mL (≈ 6.61 µM) | – | 2 µg/mL | 50 µg/mL (≈ 82.6 µM)
CC(C)OC(=O)CC[C@@H](C)[C@H]1CCC2C3CCC4C[C@@H](NCCCNCCCN)CC[C@]4(C)C3C[C@H](O)[C@@]21C (stereo partly drawn) [Compound (2), isopropyl 3β-norspermidinodeoxycholate] | 14 µg/mL (≈ 25.6 µM) | 14 µg/mL (≈ 25.6 µM) | – | 14 µg/mL (≈ 25.6 µM) | 3 µg/mL (≈ 5.48 µM) | 3 µg/mL (≈ 5.48 µM) | 14 µg/mL (≈ 25.6 µM) | 28 µg/mL (≈ 51.1 µM) | 3 µg/mL (≈ 5.48 µM) | – | 3 µg/mL | 60 µg/mL (≈ 110 µM)
COC(=O)CC[C@@H](C)[C@H]1CCC2C3CCC4C[C@@H](NCCCNCCCNCCCN)CC[C@]4(C)C3C[C@H](O)[C@@]21C (stereo partly drawn) [Compound (3), methyl 3β-norsperminodeoxycholate] | 2 µg/mL (≈ 3.47 µM) | 2 µg/mL (≈ 3.47 µM) | – | 2 µg/mL (≈ 3.47 µM) | 1 µg/mL (≈ 1.73 µM) | 4 µg/mL (≈ 6.93 µM) | 29 µg/mL (≈ 50.3 µM) | 14 µg/mL (≈ 24.3 µM) | 2 µg/mL (≈ 3.47 µM) | – | 4 µg/mL | 6 µg/mL (≈ 10.4 µM)
CC(C)OC(=O)CC[C@@H](C)[C@H]1CCC2C3C(C[C@H](O)[C@@]21C)[C@@]1(C)CC[C@H](NCCCNCCCNCCCN)CC1C[C@H]3O (stereo partly drawn) [Compound (6), isopropyl 3β-norsperminocholate] | 30 µg/mL (≈ 48.3 µM) | 30 µg/mL (≈ 48.3 µM) | – | > 60 µg/mL | 16 µg/mL (≈ 25.8 µM) | 8 µg/mL (≈ 12.9 µM) | 30 µg/mL (≈ 48.3 µM) | 30 µg/mL (≈ 48.3 µM) | 8 µg/mL (≈ 12.9 µM) | – | 4 µg/mL | 90 µg/mL (≈ 145 µM)
COC(=O)CC[C@@H](C)[C@H]1CCC2C3C(CC[C@@]21C)[C@@]1(C)CC[C@H](NCCCNCCCNCCCN)CC1C[C@@H]3O (stereo partly drawn) [Compound (12), methyl 3β-norsperminoursodeoxycholate] | 7 µg/mL (≈ 12.1 µM) | 30 µg/mL (≈ 52 µM) | – | 30 µg/mL (≈ 52 µM) | 1 µg/mL (≈ 1.73 µM) | 4 µg/mL (≈ 6.93 µM) | 4 µg/mL (≈ 6.93 µM) | 60 µg/mL (≈ 104 µM) | 7 µg/mL (≈ 12.1 µM) | – | 2 µg/mL | 20 µg/mL (≈ 34.7 µM)
CC(C)OC(=O)CC[C@@H](C)[C@H]1CCC2C3C(CC[C@@]21C)[C@@]1(C)CC[C@H](NCCCNCCCN)CC1C[C@@H]3O (stereo partly drawn) [Compound (14), isopropyl 3β-norspermidinoursodeoxycholate] | 110 µg/mL (≈ 201 µM) | – | 28 µg/mL (≈ 51.1 µM) | – | 12.5 µg/mL (≈ 22.8 µM) | 55 µg/mL (≈ 100 µM) | – | 110 µg/mL (≈ 201 µM) | – | 200 µg/mL (≈ 365 µM) | – | –
